Broadly, the melting point is the temperature, or range, at which the solid turns liquid. Compound `CC(C)[C@@H](O)[C@H](N)C(=O)O` yielded a melting point of 225 to 227 °C. Then `N#Cc1ccc2sccc2c1`, with 69 to 71 °C; and `Cc1cc(Br)ccc1S(=O)(=O)Cl`, with 65 to 67 °C. The compound `O=C(c1ccccc1)C1CNc2cc3c(cc2C1)CC(C(=O)c1ccccc1)CN3` (configuration not stated) came in with a melting point of 209 °C. Then `Clc1n[nH]c2ccccc12`, with 149 °C. `Cn1nc(-c2ccccc2)cc1CN` registered a melting point of 48 to 49 °C. `CCOC(=O)C(Cl)=Cc1cc(N2C(=O)C3=C(CCCC3)C2=O)ccc1Cl` displayed a melting point of 112 °C. Consider `Cc1nn(-c2ccccc2)c(C)c1C=O`, for which the melting point lay within 125 to 128 °C.

In the case of `CC(C=CC=C(C)C=CC1=C(C)C=CCC1(C)C)=CC=O`, the melting point came out at 77.5 °C. `Cc1ccc(-c2ccccc2)cc1C` returned a melting point of 29.5 °C.

As for `COC(=O)c1c(-c2c(Cl)cccc2Cl)noc1C`, the melting point amounted to 115 °C. Then `O=C(O)CN1C(=O)c2ccccc2C1=O`, with 195 to 198 °C. Regarding `O=C(Cl)c1cccc2c1OCC2`, the melting point lay in the range of 55 to 61 °C.

The compound `CC(C)C1=C(O)C(=O)C2=C(CC(O)C3C(C)(C)CCCC23C)C1=O` (configuration not stated) showed a melting point of 188 °C.

Compound `O=C(c1ccccc1)c1ccc(F)c(F)c1` gave a melting point of 56 °C. Turning to `CN(C)c1ccc(C2C(C#N)=C(N)SC(N)=C2c2nc3ccccc3s2)cc1` (configuration not stated), the melting point worked out at 211 °C. Turning to `CNC(=O)Oc1cccc(C)c1`, the melting point came to 77.7 °C.

Consider `Brc1ccc2c3c(cccc13)CC2`, for which the melting point is 52 °C. Then `OCc1cccc2cccc(CO)c12`, with 155 to 158 °C; and `Brc1ccc(Oc2ccccc2Br)c(Br)c1`, with under 20 °C. Then `Cc1c(C)n(C)c2ccccc12`, with 18 °C; and `Nc1nccnn1`, with 176 °C. Then `NC(=S)Nc1ccc(F)c(F)c1F`, with 162 to 165 °C; and `CCCc1ssc(=S)c1C`, with 49 °C; and `COc1c(C#N)cc(C)c2c1CCC2`, with 62 to 63 °C.

In turn, `c1ccc2c(c1)NC1(CCCC1)N2` registered a melting point of 190 °C. In the case of `COC(=O)c1c(C(F)F)nc(C(F)(F)F)c(C2=NCCS2)c1CC(C)C` it was 78 °C. Compound `O=C1NC(=O)C(c2ccccc2)(c2ccccc2)N1` yielded a melting point of 295 °C. Regarding `COC(=O)CC(=O)OC(C)(C)C`, the melting point was -10 °C. Consider `O=c1nn[nH]c2ccccc12`, for which the melting point is 223 °C. In turn, `CC(=O)C(C=N)c1ccccc1` (configuration not stated) gave a melting point of 96 °C.

For `O=C(Nc1ccc(Cl)cc1)Nc1ccc(Cl)c(C(F)(F)F)c1`, the melting point was 214 °C. Then `NC(=O)C[C@H](NC(=O)OCc1ccccc1)C(=O)O`, with 160 to 165 °C; and `Cc1cccc2[nH]ccc12`, with 5 °C; and `Nc1cccc2c(O)cccc12`, with 189 °C. As to `CC(C)(C)Oc1ncc(Br)c(OC(C)(C)C)n1`, the melting point amounted to 60 °C. On to `Oc1ccc(Sc2ccc(O)cc2O)c(O)c1`, for which the melting point lay in the range of 173 to 177 °C. Turning to `COC(=O)C1(S(=O)(=O)c2ccccc2)CCCC1`, the melting point is 56.5 °C.

`COc1ccc(OC)c(S(=O)(=O)Cl)c1` yielded a melting point of 115 to 116 °C.

Consider `CC(=O)C(=CNc1ccc(C)cc1)Cc1ccccc1`, for which the melting point came out at 103 °C. `O=C(O)CCc1ccc2c(c1)NC(=O)CC2` displayed a melting point of 240 °C. `CC(=O)Nc1ccccc1C#Cc1ccccc1` registered a melting point of 118 to 119 °C. In the case of `CCOC=C(C#N)C(=O)OCC` it was 49.5 °C. Take `CCCC(=O)c1ccccc1O`: the melting point came to 10 °C. For the compound `Cc1cc(O)c(Cl)cc1Cl`, the melting point is 73 °C. `Cn1ccnc1C(=O)O` displayed a melting point of 104 to 106 °C.

For `CC1=NC2(CCCCC2)[N+]([O-])=C1`, the melting point lay within 112 to 116 °C. On to `C1CCC2CCCC2C1` (configuration not stated), for which the melting point is -53 °C. `N#Cc1ncc(Cl)cc1Cl` showed a melting point of 101 °C. In turn, `CCOC(=O)C(C#N)=CNc1ccccc1Cl` gave a melting point of 165 to 167 °C. With `C=CCCCCCCC1CO1` (configuration not stated), the melting point worked out at 25 °C.

The compound `O=C(Nc1ccc(Cl)cc1)c1cc(Br)ccc1O` registered a melting point of 240 °C. Consider `CC(=O)C1C(=O)c2cccc([N+](=O)[O-])c2C1=O` (configuration not stated), for which the melting point fell in the range of 147 to 150 °C. The compound `CC1C(=O)C23C4CC5C(C)(C)CCC(=O)C5(C)C2C(=O)CC1C3OC(C)(C)O4` (configuration not stated) yielded a melting point of 197 °C. Then `O=C(O)c1n[nH]c2ccccc12`, with 259 to 262 °C. `CCCCCCc1ccc(-c2ccccc2)cc1` returned a melting point of 30 °C.

In the case of `CCNc1nc(NC(C)C(C)C)nc(SC)n1` (configuration not stated), the melting point came out at 65 °C. With `COc1ccc(C(O)(c2ccc(OC)cc2)c2ccc(OC)cc2)cc1`, the melting point stood at 79 °C. Then `Cc1nn(C)c2ncc(C(=O)O)c(Cl)c12`, with 269 °C. In the case of `Cc1cc(C)n(CN(Cc2ccccc2)Cn2nc(C)cc2C)n1` it was 71 °C; in that of `CNCc1ccc(-c2cncnc2)cc1`, 45 to 46 °C. Then `CC(OC(=O)c1ccc([N+](=O)[O-])cc1)c1cccc(C(C)OC(=O)c2ccc([N+](=O)[O-])cc2)c1` (configuration not stated), with 139 to 145 °C; and `CCOC(=O)c1c(C)n[nH]c1N`, with 108 °C; and `Clc1ccc(Cc2c(N=Cc3ccccc3Cl)n[nH]c2N=Cc2ccccc2Cl)cc1`, with 199 to 201 °C. In the case of `CC(C)(C(=O)O)C(O)c1ccccc1` (configuration not stated), the melting point was 134 to 137 °C.

Compound `O=C(O)c1ccc(-c2cnco2)cc1` yielded a melting point of 300 to 301 °C. Then `CCOC(=O)C1=C(c2ccccc2)NC(=O)NC1c1ccccc1` (configuration not stated), with 172 °C; and `C=CCN1C(=O)C(CC(C)C)NC1=S` (configuration not stated), with 210 °C. Take `O=C(Cl)c1ccc(-c2ccco2)cc1`: the melting point was in the range of 101 to 103 °C. Then `O=C1C=C(NCc2ccncc2)C(=O)c2ccccc21`, with 166 °C; and `O=C(O)C1=CCCc2ccccc21`, with 125 °C. Then `O=C(O)c1cccc(-c2cncnc2)c1`, with 244 to 245 °C; and `O=Cc1c(F)cc(F)cc1F`, with 66 °C. `O=C(O)C=Cc1c(Cl)cccc1Cl` registered a melting point of 192 to 196 °C. In turn, `Cc1c(C)c2c(c3c1CC3=O)CC2=O` had a melting point of 161 °C. As for `C=C(C)CCCCC`, the melting point was -90 °C. The compound `O=c1[nH]c2ccccc2n1C1CCN(CCCC(c2ccc(F)cc2)c2ccc(F)cc2)CC1` returned a melting point of 216 °C. Compound `CNCCC(Oc1ccc(C(F)(F)F)cc1)c1ccccc1` (configuration not stated) gave a melting point of 180 °C. In turn, `CCCC(O)C(O)CO` (configuration not stated) gave a melting point of 66 °C. `Brc1coc2ccccc12` yielded a melting point of 35 to 38 °C. In turn, `CCOCCCN` gave a melting point of -70 °C. `CC(=O)c1c(-c2ccc(Cl)cc2Cl)noc1C` had a melting point of 55 to 59 °C. As to `COC(=O)CCC(C)C1CCC2C3CCC4CC(=O)CCC4(C)C3CC(=O)C12C` (configuration not stated), the melting point lay in the range of 129 to 130 °C.

As for `COc1ccc(-c2ccccc2)cc1NC(=O)C(C(F)(F)F)C(F)(F)F`, the melting point was 211 °C. As for `NS(=O)(=O)Cc1ccccc1`, the melting point worked out at 103 °C. As to `Cc1ccc(Cl)cc1C(=O)O`, the melting point was in the range of 168 to 170 °C.

In the case of `O[C@@H]1CCCC[C@H]1NCc1ccccc1` (relative stereo), the melting point was in the range of 69 to 72 °C. For the compound `N#Cc1cccc(F)c1`, the melting point was -16 °C. `CCNC(=S)NN` had a melting point of 80 to 85 °C. The compound `CC(=O)/C(=N\Nc1cccc(C(F)(F)F)c1)C(=O)C(F)(F)F` came in with a melting point of 85 to 87 °C. In turn, `Brc1ccc(Oc2c(Br)cccc2Br)cc1` yielded a melting point of 77 to 77.5 °C. `O=S(=O)(Cl)c1cc(Cl)ccc1F`: the melting point amounted to 43 °C.

Consider `O=Cc1nc(-c2ccccc2Cl)c2cc(Cl)ccc2n1`, for which the melting point fell in the range of 159 to 160 °C. As to `CC(C)C(C)C(=O)O` (configuration not stated), the melting point is -1.5 °C. The compound `CN(C)c1ccc(C=O)c(Cl)c1` yielded a melting point of 83 to 84 °C. Compound `COc1cc(NC(=S)N(C)C)c(C(c2ccc(C)o2)c2ccc(C)o2)cc1OC` showed a melting point of 163 °C. The compound `CC(C(=O)O)C(O)(c1ccccc1)c1ccccc1` (configuration not stated) came in with a melting point of 182 °C. In the case of `Cc1ccc(Cl)nn1`, the melting point is 57 °C.

Turning to `CCCCCCC(=O)OC(=O)CCCCCC`, the melting point is -12 °C. `S=C=Nc1cc(Cl)c(Cl)cc1Cl` gave a melting point of 45 °C. In the case of `Clc1cc2oc3cc(Cl)c(Cl)cc3c2cc1Cl` it was 227 °C; in that of `Cc1cncc(Oc2cccc(Br)c2)n1`, 38 to 39.5 °C. `O=C(O)c1csc(-c2cccc(Cl)c2Cl)n1` yielded a melting point of 233 to 234 °C. `O=C(O)C(F)(F)C(F)(F)C(F)(F)C(F)(F)C(F)(F)C(F)(F)C(F)(F)C(F)(F)C(=O)O`: the melting point fell in the range of 154 to 160 °C. Then `Nc1c(F)c(F)c(F)c(F)c1F`, with 35.5 °C; and `Cc1ccc(S)cc1`, with 43 °C; and `O=[N+]([O-])c1cccc(-c2nnc3n2NC(c2ccco2)S3)c1` (configuration not stated), with 190 °C. In turn, `N#CCS(=O)(=O)Cc1cccc(C(F)(F)F)c1` came in with a melting point of 119 to 121 °C.

As for `CS(=O)(=O)c1ccc2c(c1)N(CCCN1CCC(C(N)=O)CC1)c1ccccc1S2`, the melting point turned out to be 170 °C. Then `CCN1CCN(c2cc3c(cc2F)c(=O)c(C(=O)O)cn3C2CC2)CC1`, with 220 °C. The compound `Cc1nn(-c2ccccc2)c(C)c1C(=O)Cl` came in with a melting point of 58 to 59 °C. `O=C(N[N+](=O)[O-])c1ccccc1` came in with a melting point of 143 °C.
